Two compounds from article PMC10815619, “Leveraging SARS-CoV-2 Main Protease (M^pro) for COVID-19 Mitigation with Selenium-Based Inhibitors” (International Journal of Molecular Sciences, 2024) can be followed below.

Like-named read-outs stand apart in the source and are kept apart here.

This test addresses T1, SARS-CoV-2 M^pro (Severe acute respiratory syndrome coronavirus 2, UniProt P0DTD1).
T1 construct: covers ORF1ab polyprotein residues 3264–3569; N-terminal leader ending in the Mpro autocleavage site (SAVLQ*SGFRK) (N, cleaved yes); made in house; host or cells: Escherichia coli BL21 (DE3), pET100D-Topo vector
The test can be described thus: Fluorescence-based cleavage assay with AFC-peptide substrate, IC50 against M^pro. The test is classed as biochemical.

Method: For the determination of half-maximal inhibitory concentrations (IC50) of inhibitors against M^pro, an AFC-Peptide substrate (SAE0180, Merck) was used for a fluorescence-based cleavage assay [66]. The assay was performed in half area 96-well, black, flat-bottomed microtiter plates (Corstar, Corning, Glendale, CA, USA) with a final volume of 125 μL. M^pro (final concentrations of 5–50 nM) was pre-incubated for 1 h at 25 °C with compounds at different concentrations in the assay buffer (PBS, pH 7.5). […] The readings for the different concentrations of the inhibitor compounds incubated with the substrate without M^Pro were measured as a blank. […] The results were plotted as dose inhibition curves using nonlinear regression with a variable slope to determine the IC50 values of inhibitor compounds using GraphPad Prism 9.0.

As usually defined, the IC50 is the concentration that gives 50% inhibition. Turning to `Cc1ccc(NC(=O)[Se]c2ccccc2)cc1` [Cmp. 3b], the IC50 worked out at 1.04 ± 0.047 µM.
`Cc1cc(C)cc(NC(=O)[Se]Cc2ccc(S(N)(=O)=O)cc2)c1` [Cmp. 3c, Se-(4-Sulfamoylbenzyl) (3,5-Dimethylphenyl) Carbamoselenoate]: the IC50 (recombinant M^pro 5-50 nM, 1 h pre-incubation at 25 °C, AFC-peptide substrate 12 μM, PBS pH 7.5, mean ± SD (n = 3), read-out: IC50 against M^pro) turned out to be 0.704 µM.
